Active and inactive are the calls of the source.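 The calls were made as follows: active = compounds giving half or more protection of infected cells from virus-caused growth loss, again on retest; inactive = the rest.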
Test system: CEM cells HIV-1 protection, formazan growth assay
Assay: NCI AIDS Antiviral Assay
Conditions: for IC50: measured here: growth of uninfected CEM cells
Procedure, shortened: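 Soluble formazan readout of cell growth; CEM cells ± HIV-1; 5 drug concs. ≥50% protection → retest; ≥50% again = moderately active; reproducible 100% = confirmed active.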

| SMILES | EC50 [µM] | IC50 [µM] | outcome |
| --- | --- | --- | --- |
| COc1ccc(NCC(=O)Nn2c(-c3ccccc3)nc3ccccc3c2=O)cc1 | > 200 | 17.8 | – |
| N[C@@H](Cc1ccccc1)C(=O)N1CCC[C@@H]1P(=O)(Oc1ccccc1)Oc1ccccc1 | – | – | inactive |
| O=C1c2ccccc2CC12Cc1cc3c(cc1C2)CCC3 | > 200 | > 200 | – |
| CCc1c(C)c(C#N)c(=S)n(C2OC(CO)C(O)C(O)C2O)c1C (stereo unspecified) | > 200 | > 200 | – |
| Cc1cc2oc(=O)cc(C)c2c(=O)o1 | > 200 | > 200 | – |
| CN(C)c1ccc(/C=C(\NC(=O)c2ccccc2)c2nc3ncncc3[nH]2)cc1 | – | – | inactive |
| CC(C)N(C(=O)C12C3C4C5(C#N)C3C1(C#N)C5C42I)C(C)C (stereo unspecified) | > 617 | 316 | – |
| c1cc(C[S+]2CCCC2)ccc1C[S+]1CCCC1 | > 100 | > 100 | – |
| C=CCCCCCCCC(O)C1C[C@H](O)C(CCCCC)O1 (stereo partly specified) | – | – | inactive |
| COC(=O)C1(Cc2ccccc2)Cc2cc3c(cc2C1=O)CCC3 (stereo unspecified) | > 200 | 85.1 | – |
| CC1/C=C/[C@@]2(C)CCC(C(C)(C)O)C2C(O)C[C@](C)(O)/C=C/C1 (stereo partly specified) | – | – | inactive |
| C1CSCCSCCCS[C@@H]2CCCCC2SC1 (stereo partly specified) | > 100 | > 100 | – |
| CCC1Sc2cc(OC)cc(NC=O)c2NC1=O (stereo unspecified) | 174 | > 200 | – |
| C=C1C(=O)C23[C@H](O)C1CC[C@H]2[C@]12COC3(O)[C@@H](O)[C@@H]1C(C)(C)CC[C@@H]2O | > 347 | 1.95 | – |
| COc1ccc2c(c1OC)CN(C)CCc1cc3c(cc1C(=O)C2)OCO3 | > 355 | 288 | – |
| CC(C)C1(O)C(c2ccccc2)=C(c2ccccc2)C(c2ccccc2)=C1c1ccccc1 | – | – | inactive |
| Oc1cc2cccc[n+]2c2cc(Cl)ccc12 | > 200 | 91.2 | – |
| COC1=CC(=O)OC(/C=C(C)/C=C/C2=C(C)CCCC2(C)C)C1 (stereo unspecified) | – | – | inactive |
| C=C1C2CC[C@H]3C45C=NC[C@](C)(CCC4)[C@H]5CCC3(C2)[C@H]1O | – | – | inactive |
| CC(=C\c1ccccc1)/C=C(\C#N)C(N)=O | > 200 | 97.7 | – |
| O=S(=O)(c1ccccc1)c1ccccc1 | > 204 | > 204 | – |
| c1ccc(N=c2sc3ccccc3sc2=Nc2ccccc2)cc1 | > 200 | 3.09 | – |

| SMILES | EC50 [µM] | IC50 [µM] | outcome |
| --- | --- | --- | --- |
| CN=C(NC)c1ncn(C2OC(CO)C(O)C2O)n1 (stereo unspecified) | – | – | inactive |
| COc1ccccc1/C=C1\N=C(C)OC1=O | – | – | inactive |
| OCCN1CCN2C=C(C3CCCC4N(CCO)CCN34)CCC21 (stereo unspecified) | > 741 | 33.9 | – |
| CC1OC(OC2C(O)COC(OC3C(C)OC(OC4C(OC(=O)[C@]56CCC(C)(C)C[C@@H]5C5=CCC7[C@@]8(C)C[C@H](O)[C@H](OC9OC(CO)C(O)C(OC%10OC(CO)C(O)C(O)C%10O)C9O)[C@@](C)(CO)[C@@H]8CC[C@@]7(C)[C@]5(C)CC6)OCC(O)C4O)C(O)C3OC3OCC(O)(CO)C3O)C2O)C(O)C(O)C1O (stereo partly specified) | > 19.1 | 12.3 | – |
| CC1C(=O)NC(=O)NC1=O | > 200 | > 200 | – |
| CC(C)(C)CC(C)(C)c1ccc(OCCO)cc1 | – | – | inactive |
| COc1ccc2c(c1)CCc1cc(OC)ccc1/[N+]([O-])=[N+]\2[O-] | > 17.4 | > 17.4 | – |
| CCCC/C(=N\OC(=O)N(C)C)c1ccccc1 | > 200 | > 100 | – |
| CC(=O)OC(OC(C)=O)n1cc(C=O)c2ccccc21 | > 200 | > 200 | – |
| CSS(C)(=O)=O | > 1120 | 53.7 | – |
| CCOCCOCCCNCC(=O)N1CCN(C(=O)CNCCCOCCOCC)CC1 | – | – | inactive |
| COc1ccc2c(c1)C/C(=C\c1cccc3ccccc13)C2=O | > 200 | 51.3 | – |
| CN1CCN(c2ccc(-n3cc(C(=O)O)c(=O)c4cc(F)c(N5CCN(C)CC5)cc43)nc2)CC1 | > 200 | 115 | – |
| NCP(=O)(O)OCC(=O)O | – | – | inactive |
| CC1(C)[C@H]2Cc3cc4nc5ccccn5c4cc3[C@@H]1C2 | > 200 | 24 | – |
| Brc1c(OCc2ccccc2)ccc2ccccc12 | > 200 | 191 | – |
| c1ccc(C2Nc3ccccc3C3OCCCC23)cc1 (stereo unspecified) | > 70.8 | > 70.8 | – |
| O=C1CC2Sc3ccccc3N=C2N1c1ccc(Cl)cc1Cl (stereo unspecified) | > 269 | 47.9 | – |
| COC(=O)/C(C#N)=C1\CCc2ccccc21 | > 1170 | > 1170 | – |
| COc1ccc2c(c1)CCc1c-2n(CCN2CCOCC2)c2ccc(OC)cc12 | > 200 | 166 | – |
| Cc1ccc(S(=O)(=O)NC(=O)NN2CCCCCC2)cc1 | > 200 | > 200 | – |
| O=S1(=O)c2ccccc2NC(=S)CC1c1ccccc1 (stereo unspecified) | > 200 | 129 | – |

| SMILES | EC50 [µM] | IC50 [µM] | outcome |
| --- | --- | --- | --- |
| O=[N+]([O-])c1ccc(/C=C/c2c[n+]([O-])nc3ccccc23)cc1 | > 200 | > 200 | – |
| O=C(Cc1cc[n+]([O-])cc1)C(=O)Nc1cc(Cl)c(Cl)cc1Cl | > 692 | 631 | – |
| N#Cc1ccc(C=NC23CC4CC(CC(C4)C2)C3)cc1 | > 67.6 | > 67.6 | – |
| O=C1C=C(Nc2ccccc2C(=O)CC(=O)C(=O)Nc2cccc(C(F)(F)F)c2)c2ccccc2C1=O | > 37.2 | 6.61 | – |
| CC#CCCC1CCCCNC1=O (stereo unspecified) | > 138 | > 138 | – |
| O=S(=O)(N1CCCCN(S(=O)(=O)C(F)(F)F)CCCN(S(=O)(=O)C(F)(F)F)CCCCN(S(=O)(=O)C(F)(F)F)CCCN(S(=O)(=O)C(F)(F)F)CCCCN(S(=O)(=O)C(F)(F)F)CCCN(S(=O)(=O)C(F)(F)F)CCCCN(S(=O)(=O)C(F)(F)F)CCC1)C(F)(F)F | > 200 | > 200 | – |
| Cn1c(-c2ccc(/C=N/NC(=S)N/N=C/c3ccc(-c4c[n+]5ccsc5n4C)cc3)cc2)c[n+]2ccsc12 | > 200 | 117 | – |
| Cc1c2ccccc2nc(CS(=O)c2ccccc2)[n+]1[O-] (stereo unspecified) | > 200 | 186 | – |
| COC(=O)c1cccc(C)c1C1CN=NC12Cc1cc(C)cc(C)c1C2=O (stereo unspecified) | > 200 | 12.3 | – |
| Cc1ccc(Nc2nc(-c3ccc(-c4ccc([N+](=O)[O-])cc4)o3)cs2)cc1 | > 10 | > 10 | – |
| CCOP(=O)(OCC)/C(C#N)=C/c1cccc(Oc2ccccc2)c1 | > 52.5 | 30.2 | – |
| O=c1[nH]c2cn(-c3ccccc3)nc2c(=O)n1O | > 200 | 3.55 | – |
| C=CCSS/C=C/CS(=O)CC=C (stereo unspecified) | > 81.3 | 0.692 | – |
| Cc1cn(C2CC(N=[N+]=[N-])C(CO)O2)c(=O)[nH]c1=O (stereo unspecified) | 0.0148 | 0.316 | – |
| C#CC(C)(C)Oc1cc(O)c2c(=O)c3ccccc3n(C)c2c1 | > 23.4 | > 23.4 | – |
| CC1(C)CC(=O)c2c(nc(SSc3nc4c(c(-c5ccccc5)c3C#N)C(=O)CC(C)(C)C4)c(C#N)c2-c2ccccc2)C1 | > 200 | 89.1 | – |
| Clc1ccc(CNc2nc3ccccc3nc2-c2cccs2)c(Cl)c1 | > 9.77 | > 9.77 | – |
| O=C1CC2C1C1C=CC2n2c(=O)n(-c3ccccc3)c(=O)n21 (stereo unspecified) | > 224 | > 224 | – |
| CCCCOP(=O)(/C=C/c1ccc([N+](=O)[O-])cc1)OCCCC | > 20.9 | > 20.9 | – |
| CCC1(c2ccccc2)Sc2ccccc2-n2cccc2C1=O (stereo unspecified) | 18.2 | 155 | – |

Source: PubChem BioAssay AID179 (DTP/NCI, 2004)
